In patent publication US10619209B2, “Serotonin transporter gene and treatment of opioid-related disorders” (University of Virginia Patent Foundation, priority 2008, dated 2020):
Counter-ions that a name gives are not always drawn.

Tests used:
[1] = test system: alcohol-dependent individuals; experiment: 12-week randomized controlled pharmacotherapy trial of ondansetron by 5'-HTTLPR genotype (Example 3); assay type: in vivo, human; conditions: for mean (SEM) DDD reduction from baseline across the treatment period: ondansetron 4 μg/kg b.i.d., 12 weeks
Source text: In a pre-planned interim analysis, data were examined for the 226 alcohol-dependent individuals (aged 18-65 years) enrolled into the 12-week randomized controlled pharmacotherapy trial to determine the effect of ondansetron on drinking among individuals who varied on allelic difference at the 5-HTT gene and age of alcoholism onset. All these individuals were enrolled at the University of Texas Health Science Center at San Antonio. Briefly, the study design was 2 (LL vs. LS/SS)×2 (early onset vs. late onset)×2 (ondansetron 4 μg/kg b.i.d. vs. placebo). The inferential results below are for the severity of drinking—drinks/drinking day (DDD).
Demographic data were that: 74% were male and 26% female; 48% were early-onset alcoholics and 52% late-onset alcoholics, and 20% were Hispanic and 80% White. There were no significant differences (P>0.05) on demographics between the treatment groups. Baseline mean (SD) DDD (past 90 days) were also similar for the ondansetron 4 μg/kg b.i.d. and placebo groups—9.83 (4.63) vs. 9.85 (4.49), respectively. The inferential analyses were conducted on all randomized subjects according to the intent-to-treat principle. The analytic plan was first to calculate the DDD in each week. We then used the difference between weekly DDD and the baseline DDD (in the past 90 days) as repeat measures. A mixed-model approach (SAS PROC MIXED) was used to study the effect of treatment, genotype (LL vs. LS/SS), treatment and genotype interaction, age, age of onset (early vs. late), gender, and age at onset of problem drinking, adjusting for the baseline DDD level. Also included is a random slope for time to study the variation in the time trend of the weekly DDD.

[2] = test system: alcohol-dependent men and women; experiment: 12-week treatment trial of ondansetron by 5'-HTTLPR and rs1042173 genotype (Example 4); assay type: in vivo, human
Protocol: 289 alcohol-dependent men and women enrolled in a 12-week treatment trial in which they received either ondansetron (4 μg/kg) or placebo. All subjects also received weekly cognitive behavioral therapy as their standardized psychosocial treatment. Genotyping was conducted on all subjects. Mixed-effects models were used to study the effect of treatment and genotype and their interaction for each of the primary drinking outcomes. The models included random intercept and random slope and were adjusted for covariates such as participants' average 90-day drinking levels prior to the study, age, gender, ethnicity (Caucasian and Hispanic), and center. A variance-components covariance matrix was used to model different variances for the intercept and slope and a covariance between them. Interactions of treatment, genotype, age, and center were first included in the models. They were excluded from the final models if not significant.

[3] = alcohol trials; 50 mg/day; cited from earlier work
[4] = cited from earlier work
[5] = placebo vs. treatment, LL genotype
[6] = placebo vs. treatment, LS/SS genotype
[7] = treatment (ondansetron) group, LS/SS vs. LL

## Cc1nccn1CC1CCc2c(c3ccccc3n2C)C1=O (centres unmarked) [ondansetron, 9-methyl-3-[(2-methyl-1H-imidazol-1-yl)methyl]-1,2,3,9-tetrahydrocarbazol-4-one]
[1]; LL genotype
  mean (SEM) DDD reduction from baseline across the treatment period: 5.70 (0.64) DDD
[1]; LS/SS genotype
  mean (SEM) DDD reduction from baseline across the treatment period: 3.45 (0.44) DDD
[1]; [5]
  Cohen's d: 0.08
  Estimate (cell contrast on DDD): 2.16 DDD
[1]; [6]
  Cohen's d: 0.04
  Estimate (cell contrast on DDD): −0.80 DDD
[1]; [7]
  Cohen's d: 0.10
  Estimate (cell contrast on DDD): 2.25 DDD
[2]; LL genotype, treatment group vs placebo group
  mean difference in DDD: −1.50 DDD
[2]; treated with ondansetron 4 μg/kg, LL vs LS/SS genotype
  mean difference in DDD: −1.41 DDD
[2]; treated with ondansetron 4 μg/kg, TT vs TG/GG genotype of rs1042173
  mean difference in DDD: −1.31 DDD

## O=C1CC[C@@]2(O)[C@H]3Cc4ccc(O)c5c4[C@@]2(CCN3CC2CC2)[C@H]1O5 [naltrexone, 17-(Cyclopropylmethyl)-4,5a-epoxy-3,14-dihydroxymorphinan-6-one hydrochloride]
[3]
  individuals unable to tolerate the dose: about 15%

## CC1(C)O[C@@H]2[C@@H](CO[C@@]3(COS(N)(=O)=O)OC(C)(C)O[C@@H]23)O1 [topiramate, 2,3:4,5-Bis-O-(1-methylethylidene)-beta-D-fructopyranose sulfamate]
[4]; general population
  individuals reporting cognitive impairment: 2.4%
[4]; substance abuse field
  occurrence rate of cognitive impairment: about 18.7%
